The test deals with T1, human full-length recombinant PKC βII (Homo sapiens, UniProt P05771).
T1 construct: Active human full-length recombinant PKC βII; purchased Invitrogen GmbH, Darmstadt, Germany
The test is described as follows: Determination of PKC βII inhibition (Caliper mobility-shift kinase assay, Fluorescein-RFARKGSLRQKNV peptide substrate). The following applies: example compounds at a final concentration of 1.14 μM (±0.15 μM). It counts as biochemical. In a few lines:
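Full-length PKC βII (30 ng/ml in pre-dilution) with PS/DAG/Ca2+ activators, pH 7.4; fluorescein peptide and ATP at 3 μM and 120 μM before mixing. Reaction ran 60 min at 32 °C, was EDTA-stopped, and was read by mobility shift. % inhibition came from product/(substrate+product) peak heights, tested at 1.14 μM final.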

From patent publication US8686150B2 (Sanofi, priority 2011, dated 2014) come the findings set out here.

T1 sequence (P05771 1-673 isoform P05771-2): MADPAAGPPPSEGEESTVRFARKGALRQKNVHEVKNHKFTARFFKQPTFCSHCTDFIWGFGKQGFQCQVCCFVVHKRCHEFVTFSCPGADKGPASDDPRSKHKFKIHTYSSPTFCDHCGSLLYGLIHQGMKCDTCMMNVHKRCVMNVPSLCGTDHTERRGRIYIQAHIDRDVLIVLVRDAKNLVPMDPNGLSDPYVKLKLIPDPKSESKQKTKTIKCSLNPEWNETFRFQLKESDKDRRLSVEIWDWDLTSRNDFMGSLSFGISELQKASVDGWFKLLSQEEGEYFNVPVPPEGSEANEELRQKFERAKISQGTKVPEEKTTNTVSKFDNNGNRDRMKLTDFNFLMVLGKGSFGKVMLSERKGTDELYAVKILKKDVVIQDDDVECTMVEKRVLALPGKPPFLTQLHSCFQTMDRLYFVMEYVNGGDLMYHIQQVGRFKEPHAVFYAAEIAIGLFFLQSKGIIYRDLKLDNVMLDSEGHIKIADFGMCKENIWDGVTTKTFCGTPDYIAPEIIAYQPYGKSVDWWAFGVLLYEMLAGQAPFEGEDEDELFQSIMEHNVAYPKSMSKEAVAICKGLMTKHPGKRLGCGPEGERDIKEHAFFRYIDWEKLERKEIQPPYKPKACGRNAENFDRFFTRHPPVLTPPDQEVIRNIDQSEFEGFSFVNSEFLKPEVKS

As for `Cc1n[nH]c2nc(-c3ccc(O)cc3)cc(C(=O)NC3CNCC3C)c12` (centres unmarked) [Example 43, 6-(4-Hydroxy-phenyl)-3-methyl-1H-pyrazolo[3,4-b]pyridine-4-carboxylic acid (4-methyl-pyrrolidin-3-yl)-amide], the inhibition at 1.14 µM is 81%.

For the compound `CCOC1CNCC1NC(=O)c1cc(-c2ccc(O)cc2)nc2[nH]nc(C)c12` (centres unmarked) [Example 44, 6-(4-Hydroxy-phenyl)-3-methyl-1H-pyrazolo[3,4-b]pyridine-4-carboxylic acid (4-ethoxy-pyrrolidin-3-yl)-amide], the inhibition at 1.14 µM stood at 83%. Consider `Cc1n[nH]c2nc(-c3ccc(O)cc3)cc(C(=O)NC3CNCC3c3ccccc3)c12` (centres unmarked) [Example 45, 6-(4-Hydroxy-phenyl)-3-methyl-1H-pyrazolo[3,4-b]pyridine-4-carboxylic acid (4-phenyl-pyrrolidin-3-yl)-amide], for which the inhibition at 1.14 µM was found to be 84%.

Regarding `CCCC1(N)CCN(C(=O)c2cc(-c3ccc(O)cc3)nc3[nH]nc(C)c23)CC1` [Example 46, (4-Amino-4-propyl-piperidin-1-yl)-[6-(4-hydroxy-phenyl)-3-methyl-1H-pyrazolo[3,4-b]pyridin-4-yl]-methanone], the inhibition at 1.14 µM was 76%.

In the case of `CCCC1(N)CCN(C(=O)c2cc(-c3ccc(O)cc3)nc3[nH]nc(C)c23)C1` (centres unmarked) [Example 47, (3-Amino-3-propyl-pyrrolidin-1-yl)-[6-(4-hydroxy-phenyl)-3-methyl-1H-pyrazolo[3,4-b]pyridin-4-yl]-methanone], the inhibition at 1.14 µM turned out to be 70%.

Regarding `CCCC1(N)CCCN(C(=O)c2cc(-c3ccc(O)cc3)nc3[nH]nc(C)c23)C1` (centres unmarked) [Example 48, (3-Amino-3-propyl-piperidin-1-yl)-[6-(4-hydroxy-phenyl)-3-methyl-1H-pyrazolo[3,4-b]pyridin-4-yl]-methanone], the inhibition at 1.14 µM is 70%. `CCC1(NC(=O)c2cc(-c3ccc(O)cc3)nc3[nH]nc(C)c23)CCNCC1` [Example 49, 6-(4-Hydroxy-phenyl)-3-methyl-1H-pyrazolo[3,4-b]pyridine-4-carboxylic acid (4-ethyl-piperidin-4-yl)-amide]: the inhibition at 1.14 µM is 97%. Next, `Cc1n[nH]c2nc(-c3ccc(O)cc3)cc(C(=O)NCCNC(C)C)c12` [Example 50, 6-(4-Hydroxy-phenyl)-3-methyl-1H-pyrazolo[3,4-b]pyridine-4-carboxylic acid (2-isopropylamino-ethyl)-amide]: 81%; `COc1cccc(C(CN)NC(=O)c2cc(-c3ccc(O)cc3)nc3[nH]nc(C)c23)c1` (centres unmarked) [Example 51, 6-(4-Hydroxy-phenyl)-3-methyl-1H-pyrazolo[3,4-b]pyridine-4-carboxylic acid [2-amino-1-(3-methoxy-phenyl)-ethyl]-amide]: 85%. The same measure for `Cc1ccc(C(CN)NC(=O)c2cc(-c3ccc(O)cc3)nc3[nH]nc(C)c23)cc1` (centres unmarked) [Example 52, 6-(4-Hydroxy-phenyl)-3-methyl-1H-pyrazolo[3,4-b]pyridine-4-carboxylic acid (2-amino-1-p-tolyl-ethyl)-amide]: 86%; for `Cc1n[nH]c2nc(-c3ccc(O)cc3)cc(C(=O)N3CCNCC3)c12` [Example 53, [6-(4-Hydroxy-phenyl)-3-methyl-1H-pyrazolo[3,4-b]pyridin-4-yl]-piperazin-1-yl-methanone]: 92%.

For the compound `Cc1n[nH]c2nc(-c3ccc(O)cc3)cc(C(=O)N3CCN(C(N)=O)CC3)c12` [Example 54, 4-[6-(4-Hydroxy-phenyl)-3-methyl-1H-pyrazolo[3,4-b]pyridine-4-carbonyl]-piperazine-1-carboxylic acid amide], the inhibition at 1.14 µM amounted to 41%. Next, `O=C(c1cc(-c2ccc(O)cc2)nc2[nH]nc(C3CC3)c12)N1CCNCC1` [Example 55, [3-Cyclopropyl-6-(4-hydroxy-phenyl)-1H-pyrazolo[3,4-b]pyridin-4-yl]-piperazin-1-yl-methanone]: 27%; `Cc1n[nH]c2nc(-c3ccc(O)cc3F)cc(C(=O)N3CCNCC3(C)C)c12` [Example 56, (2,2-Dimethyl-piperazin-1-yl)-[6-(2-fluoro-4-hydroxy-phenyl)-3-methyl-1H-pyrazolo[3,4-b]pyridin-4-yl]-methanone]: 96%; `Cc1n[nH]c2nc(-c3ccc(O)cc3F)cc(C(=O)N3CCNC[C@H]3c3ccccc3)c12` [Example 57, [6-(2-Fluoro-4-hydroxy-phenyl)-3-methyl-1H-pyrazolo[3,4-b]pyridin-4-yl]-((R)-2-phenyl-piperazin-1-yl)-methanone]: 99%. On to `CNC1CCN(C(=O)c2cc(-c3ccc(O)cc3F)nc3[nH]nc(C)c23)CC1` [Example 58, [6-(2-Fluoro-4-hydroxy-phenyl)-3-methyl-1H-pyrazolo[3,4-b]pyridin-4-yl]-(4-methylamino-piperidin-1-yl)-methanone], for which the inhibition at 1.14 µM amounted to 93%.

As to `Cc1n[nH]c2nc(-c3ccc(O)cc3F)cc(C(=O)N3CCC[C@@H](CN)C3)c12` [Example 59, ((S)-3-Aminomethyl-piperidin-1-yl)-[6-(2-fluoro-4-hydroxy-phenyl)-3-methyl-1H-pyrazolo[3,4-b]pyridin-4-yl]-methanone], the inhibition at 1.14 µM amounted to 80%.

Regarding `Cc1n[nH]c2nc(-c3ccc(O)cc3F)cc(C(=O)N3CCNCC3C(F)(F)F)c12` (centres unmarked) [Example 60, [6-(2-Fluoro-4-hydroxy-phenyl)-3-methyl-1H-pyrazolo[3,4-b]pyridin-4-yl]-(2-trifluoromethyl-piperazin-1-yl)-methanone], the inhibition at 1.14 µM was 98%. The same measure for `Cc1n[nH]c2nc(-c3ccc(O)cc3F)cc(C(=O)NCC3(N)CCCCCC3)c12` [Example 61, 6-(2-Fluoro-4-hydroxy-phenyl)-3-methyl-1H-pyrazolo[3,4-b]pyridine-4-carboxylic acid (1-amino-cycloheptylmethyl)-amide]: 92%. `CCC1(NC(=O)c2cc(-c3ccc(O)cc3F)nc3[nH]nc(C)c23)CCCNC1` (centres unmarked) [Example 62, 6-(2-Fluoro-4-hydroxy-phenyl)-3-methyl-1H-pyrazolo[3,4-b]pyridine-4-carboxylic acid (3-ethyl-piperidin-3-yl)-amide]: the inhibition at 1.14 µM was 100%.

As for `Cc1n[nH]c2nc(-c3ccc(O)cc3F)cc(C(=O)N3CC(C)(C)NCC3(C)C)c12` [Example 63, [6-(2-Fluoro-4-hydroxy-phenyl)-3-methyl-1H-pyrazolo[3,4-b]pyridin-4-yl]-(2,2,5,5-tetramethyl-piperazin-1-yl)-methanone], the inhibition at 1.14 µM worked out at 100%. On to `Cc1n[nH]c2nc(-c3ccc(O)cc3F)cc(C(=O)N3CCNCC34CC4)c12` [Example 64, (4,7-Diaza-spiro[2.5]oct-4-yl)-[6-(2-fluoro-4-hydroxy-phenyl)-3-methyl-1H-pyrazolo[3,4-b]pyridin-4-yl]-methanone], for which the inhibition at 1.14 µM amounted to 98%.

With `CCC(CCN)NC(=O)c1cc(-c2ccc(O)cc2F)nc2[nH]nc(C)c12` (centres unmarked) [Example 65, 6-(2-Fluoro-4-hydroxy-phenyl)-3-methyl-1H-pyrazolo[3,4-b]pyridine-4-carboxylic acid (3-amino-1-ethyl-propyl)-amide], the inhibition at 1.14 µM is 94%. Next, `Cc1n[nH]c2nc(-c3ccc(O)cc3F)cc(C(=O)NC(C)(C)CCN)c12` [Example 66, 6-(2-Fluoro-4-hydroxy-phenyl)-3-methyl-1H-pyrazolo[3,4-b]pyridine-4-carboxylic acid (3-amino-1,1-dimethyl-propyl)-amide]: 93%; `Cc1n[nH]c2nc(-c3ccc(O)cc3F)cc(C(=O)NCCC(C)(C)N)c12` [Example 67, 6-(2-Fluoro-4-hydroxy-phenyl)-3-methyl-1H-pyrazolo[3,4-b]pyridine-4-carboxylic acid (3-amino-3-methyl-butyl)-amide]: 86%.

As for `CCC[C@H]1CN(C(=O)c2cc(-c3ccc(O)cc3)nc3[nH]nc(C)c23)CCN1` [Example 68, [6-(4-Hydroxy-phenyl)-3-methyl-1H-pyrazolo[3,4-b]pyridin-4-yl]-((S)-3-propyl-piperazin-1-yl)-methanone], the inhibition at 1.14 µM came out at 88%. Regarding `COc1ccc(C2CNCCN2C(=O)c2cc(-c3ccc(O)cc3)nc3[nH]nc(C)c23)cc1` (centres unmarked) [Example 69, [6-(4-Hydroxy-phenyl)-3-methyl-1H-pyrazolo[3,4-b]pyridin-4-yl]-[2-(4-methoxy-phenyl)-piperazin-1-yl]-methanone], the inhibition at 1.14 µM is 100%. Next, `Cc1n[nH]c2nc(-c3ccc(O)cc3)cc(C(=O)N3CC(C)NCC3c3ccccc3)c12` (centres unmarked) [Example 70, [6-(4-Hydroxy-phenyl)-3-methyl-1H-pyrazolo[3,4-b]pyridin-4-yl]-(5-methyl-2-phenyl-piperazin-1-yl)-methanone]: 92%; `Cc1n[nH]c2nc(-c3ccc(O)cc3)cc(C(=O)N3CC4CCC3CN4)c12` (centres unmarked) [Example 71, 2,5-Diaza-bicyclo[2.2.2]oct-2-yl-[6-(4-hydroxy-phenyl)-3-methyl-1H-pyrazolo[3,4-b]pyridin-4-yl]-methanone]: 95%; `COc1cccc(C2CNCCN2C(=O)c2cc(-c3ccc(O)cc3)nc3[nH]nc(C)c23)c1` (centres unmarked) [Example 72, [6-(4-Hydroxy-phenyl)-3-methyl-1H-pyrazolo[3,4-b]pyridin-4-yl]-[2-(3-methoxy-phenyl)-piperazin-1-yl]-methanone]: 94%. The same measure for `Cc1n[nH]c2nc(-c3ccc(O)cc3)cc(C(=O)NC3CCNCC3)c12` [Example 74, 6-(4-Hydroxy-phenyl)-3-methyl-1H-pyrazolo[3,4-b]pyridine-4-carboxylic acid piperidin-4-ylamide]: 47%. Next, `Cc1n[nH]c2nc(-c3ccc(O)cc3)cc(C(=O)N3CCCNCC3)c12` [Example 75, [1,4]Diazepan-1-yl-[6-(4-hydroxy-phenyl)-3-methyl-1H-pyrazolo[3,4-b]pyridin-4-yl]-methanone]: 89%.
